ChEMBL document CHEMBL5321279 (J Med Chem, 2023)
Activity calls are given as the source filed them. No cut-off for these calls is given here.

What was measured:
[1] = (§1) Cytotoxicity against quiescent human PBMC cells assessed as reduction in cell growth measured after 5 days by CellTiter-Glo assay; format: toxicity, cell-based; conditions: quiescent PBMC, time 5 day
SARS-CoV-2 [2] = test: Antiviral activity against SARS-CoV-2 Delta (B.1.617.2) infected in human A549-hACE2-TMPRSS2 cells assessed as fold reduction in viral replication pre-incubated with compound followed by viral infection measured after 48 hrs by ELISA assay relative to SARS-CoV-2 WA1; format: functional, Severe acute respiratory syndrome coronavirus 2
SARS-CoV-2 [3] = test: Antiviral activity against SARS-CoV-2 Omicron BA.2 infected in human A549-hACE2-TMPRSS2 cells assessed as fold reduction in viral replication pre-incubated with compound followed by viral infection measured after 72 hrs by ELISA assay relative to SARS-CoV-2 WA1; format: functional, Severe acute respiratory syndrome coronavirus 2
SARS-CoV-2 [4] = test: Antiviral activity against SARS-CoV-2 Omicron BA.2.12.1 infected in human A549-hACE2-TMPRSS2 cells assessed as fold reduction in viral replication pre-incubated with compound followed by viral infection measured after 72 hrs by ELISA assay relative to SARS-CoV-2 WA1; format: functional, Severe acute respiratory syndrome coronavirus 2
SARS-CoV-2 [5] = test: Antiviral activity against SARS-CoV-2 Omicron BA.2.75 infected in human A549-hACE2-TMPRSS2 cells assessed as fold reduction in viral replication pre-incubated with compound followed by viral infection measured after 72 hrs by ELISA assay relative to SARS-CoV-2 WA1; format: functional, Severe acute respiratory syndrome coronavirus 2
SARS-CoV-2 [6] = test: Antiviral activity against SARS-CoV-2 Omicron BA.4.6 infected in human A549-hACE2-TMPRSS2 cells assessed as fold reduction in viral replication pre-incubated with compound followed by viral infection measured after 72 hrs by ELISA assay relative to SARS-CoV-2 WA1; format: functional, Severe acute respiratory syndrome coronavirus 2
SARS-CoV-2 [7] = test: Antiviral activity against SARS-CoV-2 Omicron BF.5 infected in human A549-hACE2-TMPRSS2 cells assessed as fold reduction in viral replication pre-incubated with compound followed by viral infection measured after 72 hrs by ELISA assay relative to SARS-CoV-2 WA1; format: functional, Severe acute respiratory syndrome coronavirus 2
PC-3 = test: Inhibition of mitochondrial protein synthesis in human PC-3 cells at 100 uM incubated for 5 days; format: functional, cell-based; conditions: time 5.0 day
[8] = Lipophilicity, logD of compound; format: physicochemical; conditions: octanol/water
[9] = Apparent permeability of the compound from apical to basolateral side in human Caco-2 cells incubated for 2 hrs by LC-MS/MS analysis; format: ADME, cell-based; conditions: Caco-2
[10] = Thermodynamic aqueous solubility at pH 2 measured at 72 hrs by UPLC analysis; format: physicochemical; conditions: aqueous solution, read-out: Therm_solubility
[11] = Thermodynamic aqueous solubility at pH 7 measured at 24 hrs by UPLC analysis; format: physicochemical; conditions: aqueous solution, read-out: Therm_solubility
[12] = AUC(0 to 24 hrs) in rat at 1 mg/kg, iv measured upto 24 hrs by LC-MS/MS analysis; format: ADME, organism-based; set-up: dose 1 mg/kg, time < 24 hrs, route iv; conditions: in vivo
[13] = AUC(0 to 24 hrs) in African green monkey at 20 mg/kg, iv measured upto 24 hrs by LC-MS/MS analysis; format: ADME, organism-based; set-up: dose 20 mg/kg, time < 24 hrs, route iv; conditions: chlorocebus sabaeus, in vivo
[14] = Prodrug conversion in African green monkey assessed as Nucleotide triphosphate metabolite formation in lung at 20 mg/kg, iv measured upto 24 hrs by LC-MS/MS analysis; format: ADME, organism-based; conditions: chlorocebus aethiops, in vivo
Huh-7 = test: Cytotoxicity against human Huh-7 cells assessed as reduction in cell growth measured after 5 days by CellTiter-Glo assay; format: toxicity, cell-based; conditions: huh-7, 120 h, time 5 day
MRC5 = test: Cytotoxicity against human MRC5 cells assessed as reduction in cell growth measured after 5 days by CellTiter-Glo assay; format: toxicity, cell-based; conditions: mrc5, 120 h, time 5 day
[15] = Drug metabolism in human A549-ACE2 cells assessed as Nucleotide triphosphate metabolite formation at 10 uM measured after 48 hrs by LC-MS analysis; format: ADME, cell-based; conditions: a549-ace2, 48 h
[16] = Drug metabolism in human NHBE-T cells assessed as fold increase in Nucleotide triphosphate metabolite formation at 10 uM measured after 48 hrs by LC-MS analysis; format: ADME, cell-based
[17] = biological target: T1, Adenosine deaminase (Homo sapiens) (UniProt P00813); test: Inhibition of human recombinant ADA1-mediated drug metabolism at 100 uM incubated for 58 mins by absorbance based analysis
T1 sequence (whole entry): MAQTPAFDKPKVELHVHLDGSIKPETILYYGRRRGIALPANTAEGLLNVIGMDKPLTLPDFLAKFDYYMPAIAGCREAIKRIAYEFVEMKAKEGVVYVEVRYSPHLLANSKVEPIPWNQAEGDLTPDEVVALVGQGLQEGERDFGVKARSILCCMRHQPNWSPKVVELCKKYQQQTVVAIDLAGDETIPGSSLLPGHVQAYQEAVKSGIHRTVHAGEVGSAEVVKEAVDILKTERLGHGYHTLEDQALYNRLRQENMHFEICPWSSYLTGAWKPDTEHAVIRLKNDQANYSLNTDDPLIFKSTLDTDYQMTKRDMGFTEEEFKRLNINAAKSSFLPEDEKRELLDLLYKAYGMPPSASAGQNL

[18] = AUC(0 to 24 hrs) in African green monkey infected with SARS-CoV-2 assessed as prodrug conversion by measuring (2R,3R,4S,5R)-2-(4-aminopyrrolo[2,1-f][1,2,4]triazin-7-yl)-3,4-dihydroxy-5-(hydroxymethyl)tetrahydrofuran-2-carbonitrile at 7.5 mg/kg, iv qd measured after 6 days by LC-MS/MS analysis; format: ADME, organism-based, Severe acute respiratory syndrome coronavirus 2; set-up: dose 7.5 mg/kg, time 6 day, route iv; conditions: in vivo
[19] = Aqueous stability of the compound assessed as compound remaining at pH 2 measured at 24 hrs by UPLC analysis; format: physicochemical; conditions: aqueous solution, read-out: Stability
[20] = Aqueous stability of the compound assessed as compound remaining at pH 7 measured at 24 hrs by UPLC analysis; format: physicochemical; conditions: aqueous solution, read-out: Stability
[21] = Stability of compound in human liver S9 fraction assessed as half life at pH 7.4 measured upto 90 mins by LC-MS/MS analysis; format: ADME, subcellular
[22] = Oral bioavailability in cynomolgus monkey assessed as prodrug conversion by measuring (2R,3R,4S,5R)-2-(4-aminopyrrolo[2,1-f][1,2,4]triazin-7-yl)-3,4-dihydroxy-5-(hydroxymethyl)tetrahydrofuran-2-carbonitrile at 11.7 mg/kg measured upto 24 hrs by LC-MS/MS analysis; format: ADME, organism-based, Macaca fascicularis; conditions: in vivo
[23] = Oral bioavailability in African green monkey assessed as prodrug conversion by measuring (2R,3R,4S,5R)-2-(4-aminopyrrolo[2,1-f][1,2,4]triazin-7-yl)-3,4-dihydroxy-5-(hydroxymethyl)tetrahydrofuran-2-carbonitrile at […] measured upto 24 hrs by LC-MS/MS analysis; format: ADME, organism-based; conditions: chlorocebus sabaeus, in vivo
PBMC = test: as §1; format: toxicity, cell-based; conditions: pbmc, 120 h, time 5 day
SARS-CoV-2 [24] = test: Antiviral activity against SARS-CoV-2 infected in African green monkey assessed as reduction in viral genomic RNA load in throat swabs at 60 to 120 mg/kg, po qd administered for 1 day starting from 8 hrs post infection by RT-qPCR analysis; format: functional, organism-based; conditions: Severe acute respiratory syndrome coronavirus 2, dose lower 60.0 mg/kg, dose upper […]
SARS-CoV-2 [25] = test: Antiviral activity against SARS-CoV-2 infected in African green monkey assessed as reduction in viral genomic RNA load in throat swabs at 60 to 120 mg/kg, po qd administered for 6 days starting from 8 hrs post infection by RT-qPCR analysis; format: functional, organism-based; conditions: Severe acute respiratory syndrome coronavirus 2, dose lower 60.0 mg/kg, dose upper […], time 6.0 day

| SMILES | fold change (FC) (SARS-CoV-2 [2]) | fold change (FC) (SARS-CoV-2 [3]) | fold change (FC) (SARS-CoV-2 [4]) | fold change (FC) (SARS-CoV-2 [5]) | fold change (FC) (SARS-CoV-2 [6]) | fold change (FC) (SARS-CoV-2 [7]) | inhibition (PC-3) | Papp A→B at 2 h [9] | solubility thermodynamic at 72 h [10] | solubility thermodynamic at 24 h [11] | CC50 (Huh-7) | CC50 (MRC5) | Drug metabolism [15] | Drug metabolism [16] | inhibition [17] | other results |
| --- | --- | --- | --- | --- | --- | --- | --- | --- | --- | --- | --- | --- | --- | --- | --- | --- |
| CCC(CC)COC(=O)[C@H](C)N[P@](=O)(OC[C@H]1O[C@@](C#N)(c2ccc3c(N)ncnn23)[C@H](O)[C@@H]1O)Oc1ccccc1 | 0.59 | 0.23 | 0.2 | 0.3 | 0.64 | 0.94 | – | – | – | – | – | – | – | – | – | CC50 at 120 h [1]: > 20 µM |
| N#C[C@@]1(c2ccc3c(N)ncnn23)O[C@H](CO)[C@@H](O)[C@H]1O [GS-441524] | – | – | – | – | – | – | inactive | 0.1 ×10⁻⁶ cm/s | ≤ 1 mg/mL | ≤ 70 µg/mL | > 89 µM | > 89 µM | Metabolite_Detected | Metabolite_Detected | Active | logD [8]: < 0.3; AUC [12]: 2.5 µM·h; AUC [13]: 147 µM·h; Drug metabolism [14]: 0.23 nmol/g; fold change (FC) [16]: > 3; AUC [18]: ~ 55 uM.hr |
| CC(C)C(=O)OC[C@H]1O[C@@](C#N)(c2ccc3c(N)ncnn23)[C@H](O)[C@@H]1O [OBELDESIVIR] | 0.72 | 0.37 | 0.29 | 0.35 | 0.62 | 0.8 | inactive | 1 ×10⁻⁶ cm/s | ≥ 40 mg/mL | ≥ 1000 µg/mL | > 44 µM | > 44 µM | Metabolite_Detected | Metabolite_Detected | Active | logD ([8]; read-out: logD): < 0.9; remaining at 24 h [19]: ≥ 94%; remaining at 24 h [20]: ≥ 96%; half-life at […] [21]: < 2 min; F [22]: 37%; F [23]: 31%; CC50 (PBMC): > 100 µM; Activity (SARS-CoV-2 [24]): Active; Activity (SARS-CoV-2 [25]): Active |
